Test results as given in US20140357655A1, “SPIROINDOLINE DERIVATIVES AS GONADOTROPIN- RELEASING HORMONE RECEPTOR ANTAGONISTS” (Bayer Intellectual Property GmbH, priority 2012, published 2014).

Target: T1, human GnRH receptor (Homo sapiens, UniProt P30968)
T1 sequence (P30968 1-328): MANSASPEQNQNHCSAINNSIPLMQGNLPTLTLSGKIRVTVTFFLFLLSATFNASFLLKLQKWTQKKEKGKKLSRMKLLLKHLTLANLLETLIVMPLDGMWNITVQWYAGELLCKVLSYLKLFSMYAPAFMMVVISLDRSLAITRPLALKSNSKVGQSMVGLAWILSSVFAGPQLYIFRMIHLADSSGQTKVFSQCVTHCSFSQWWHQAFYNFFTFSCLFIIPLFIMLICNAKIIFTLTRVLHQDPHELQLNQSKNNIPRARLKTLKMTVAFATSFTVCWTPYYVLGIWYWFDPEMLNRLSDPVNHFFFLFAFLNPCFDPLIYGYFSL
Test: IP-One HTRF assay with buserelin (at EC80) stimulation
Format: cell-based
Conditions: CHO cells stably expressing human GnRH receptor, read-out: Potency in IP-One HTRF assay, given as IC50
Outline: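 CHO cells stably expressing human GnRH receptor, preincubated 1 h at 37° C with IP1-d2, were exposed to compound and buserelin at EC80 for 1 h at 37° C. After lysis with Tb-anti-IP1 antibody (1 h, 22° C), 665/620 nm HTRF ratio read; 10 concentrations, 20 μM–1 nM, duplicates, 4-parameter IC50.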

## N#Cc1cccc(S(=O)(=O)N2c3ccc(C(=O)Nc4cncc(Cl)c4)cc3C3(CCS(=O)(=O)CC3)C2C2CC2)c1 (single isomer, unassigned) [Example 77.2, N-(5-chloropyridin-3-yl)-1-[(3-cyanophenyl)sulfonyl]-2-cyclopropyl-1,2,2′,3′,5′,6′-hexahydrospiro[indole-3,4′-thiopyran]-5-carboxamide 1′,1′-dioxide]
  IC50: 0.963 µM

## NC(=O)c1cccc(NC(=O)c2ccc3c(c2)C2(CCS(=O)(=O)CC2)C(C2CC2)N3S(=O)(=O)c2ccc(F)cc2)c1 (single isomer, unassigned) [Example 51.2, N-(3-carbamoylphenyl)-2-cyclopropyl-1-[(4-fluorophenyl)sulfonyl]-1,2,2′,3′,5′,6′-hexahydrospiro[indole-3,4′-thiopyran]-5-carboxamide 1′,1′-dioxide]
  IC50: 1.18 µM

## O=C(NCc1ccccn1)c1ccc2c(c1)C1(CCS(=O)(=O)CC1)C(C1CC1)N2S(=O)(=O)c1ccc(F)cc1 (stereo not shown) [Example 22, 2-cyclopropyl-1-[(4-fluorophenyl)sulfonyl]-N-(2-pyridylmethyl)-1,2,2′,3′,5′,6′-hexahydrospiro[indole-3,4′-thiopyran]-5-carboxamide 1′,1′-dioxide]
  IC50: 1.48 µM

## COc1cccc(S(=O)(=O)N2c3ccc(C(=O)Nc4cccc(S(N)(=O)=O)c4)cc3C3(CCS(=O)(=O)CC3)C2C2CC2)c1 (single isomer, unassigned) [Example 42.1, 2-cyclopropyl-1-[(3-methoxyphenyl)sulfonyl]-N-(3-sulfamoylphenyl)-1,2,2′,3′,5′,6′-hexahydrospiro[indole-3,4′-thiopyran]-5-carboxamide 1′,1′-dioxide]
  IC50: 0.437 µM

## N#Cc1cccc(S(=O)(=O)N2c3ccc(C(=O)NCc4ncccc4C(F)(F)F)cc3C3(CCS(=O)(=O)CC3)C2C2CC2)c1 (stereo not shown) [Example 79, 1-[(3-cyanophenyl)sulfonyl]-2-cyclopropyl-N-{[3-(trifluoromethyl)pyridin-2-yl]methyl}-1,2,2′,3′,5′,6′-hexahydrospiro[indole-3,4′-thiopyran]-5-carboxamide 1′,1′-dioxide]
  IC50: 0.064 µM

## O=C(O)c1cccc(NC(=O)c2ccc3c(c2)C2(CCS(=O)(=O)CC2)C(C2CC2)N3S(=O)(=O)c2cccc(OC(F)F)c2)c1 (single isomer, unassigned) [Example 90.1, 3-{[(2-cyclopropyl-1-{[3-(difluoromethoxy)phenyl]sulfonyl}-1′,1′-dioxido-1,2,2′,3′,5′,6′-hexahydrospiro[indole-3,4′-thiopyran]-5-yl)carbonyl]amino}benzoic acid]
  IC50: 0.041 µM

## Cc1cc(NS(=O)(=O)c2cccc(NC(=O)c3ccc4c(c3)C3(CCS(=O)(=O)CC3)C(C3CC3)N4S(=O)(=O)c3ccc(F)cc3)c2)no1 (stereo not shown) [Example 66, 2-cyclopropyl-1-[(4-fluorophenyl)sulfonyl]-N-{3-[(5-methyl-1,2-oxazol-3-yl)sulfamoyl]phenyl}-1,2,2′,3′,5′,6′-hexahydrospiro[indole-3,4′-thiopyran]-5-carboxamide 1′,1′-dioxide]
  IC50: 0.177 µM

## O=C(NCCc1ccccc1Cl)c1ccc2c(c1)C1(CCS(=O)(=O)CC1)C(C1CC1)N2S(=O)(=O)c1ccc(F)cc1 (stereo not shown) [Example 25, N-[2-(2-chlorophenyl)ethyl]-2-cyclopropyl-1-[(4-fluorophenyl)sulfonyl]-1,2,2′,3′,5′,6′-hexahydrospiro[indole-3,4′-thiopyran]-5-carboxamide 1′,1′-dioxide]
  IC50: 2.62 µM

## O=C(NCc1ncccc1F)c1ccc2c(c1)C1(CCS(=O)(=O)CC1)C(C1CC1)N2S(=O)(=O)c1ccc(F)cc1 (stereo not shown) [Example 52, 2-cyclopropyl-1-[(4-fluorophenyl)sulfonyl]-N-[(3-fluoropyridin-2-yl)methyl]-1,2,2′,3′,5′,6′-hexahydrospiro[indole-3,4′-thiopyran]-5-carboxamide 1′,1′-dioxide]
  IC50: 0.752 µM

## O=C(NCc1ncccc1Cl)c1ccc2c(c1)C1(CCS(=O)(=O)CC1)C(C1CC1)N2S(=O)(=O)c1ccc(F)cc1 (racemic) [Example 14, N-[(3-Chloropyridin-2-yl)methyl]-2-cyclopropyl-1-[(4-fluorophenyl)sulfonyl]-1,2,2′,3′,5′,6′-hexahydrospiro[indole-3,4′-thiopyran]-5-carboxamide 1′,1′-dioxide]
  IC50: 0.245 µM

## N#Cc1cccc(S(=O)(=O)N2c3ccc(C(=O)Nc4ncco4)cc3C3(CCS(=O)(=O)CC3)C2C2CC2)c1 (stereo not shown) [Example 78, 1-[(3-cyanophenyl)sulfonyl]-2-cyclopropyl-N-(1,3-oxazol-2-yl)-1,2,2′,3′,5′,6′-hexahydrospiro[indole-3,4′-thiopyran]-5-carboxamide 1′,1′-dioxide]
  IC50: 0.706 µM

## O=C(NCC1CC1)c1ccc2c(c1)C1(CCS(=O)(=O)CC1)C(C1CC1)N2S(=O)(=O)c1ccc(F)cc1 (stereo not shown) [Example 35, 2-cyclopropyl-N-(cyclopropylmethyl)-1-[(4-fluorophenyl)sulfonyl]-1,2,2′,3′,5′,6′-hexahydrospiro[indole-3,4′-thiopyran]-5-carboxamide 1′,1′-dioxide]
  IC50: 0.627 µM

## C=CCC1N(S(=O)(=O)c2ccc(F)cc2)c2ccc(C(=O)NCc3ncccc3Cl)cc2C12CCS(=O)(=O)CC2 (stereo not shown) [Example 57, N-[(3-chloropyridin-2-yl)methyl]-1-[(4-fluorophenyl)sulfonyl]-2-(prop-2-en-1-yl)-1,2,2′,3′,5′,6′-hexahydrospiro[indole-3,4′-thiopyran]-5-carboxamide 1′,1′-dioxide]
  IC50: 0.071 µM

## N#Cc1ccc(S(=O)(=O)N2c3ccc(C(=O)NCc4ccccc4C(F)(F)F)cc3C3(CCS(=O)(=O)CC3)C2C2CC2)cc1 (single isomer, unassigned) [Example 72.2, 1-[(4-cyanophenyl)sulfonyl]-2-cyclopropyl-N-[2-(trifluoromethyl)benzyl]-1,2,2′,3′,5′,6′-hexahydrospiro[indole-3,4′-thiopyran]-5-carboxamide 1′,1′-dioxide]
  IC50: 0.403 µM

## O=C(NCc1ccccc1Cl)c1ccc2c(c1)C1(CCS(=O)(=O)CC1)C(C1CC1)N2S(=O)(=O)c1cccc(OC(F)(F)F)c1 (stereo not shown) [Example 81, N-(2-chlorobenzyl)-2-cyclopropyl-1-{[3-(trifluoromethoxy)phenyl]sulfonyl}-1,2,2′,3′,5′,6′-hexahydrospiro[indole-3,4′-thiopyran]-5-carboxamide 1′,1′-dioxide]
  IC50: 0.437 µM

## CC1N(S(=O)(=O)c2ccc(F)cc2)c2ccc(C(=O)Nc3cccc(S(=O)(=O)N(C)C)c3)cc2C12CCOCC2 (stereo not shown) [Example 11, N-[3-(N,N-dimethylsulfamoyl)phenyl]-1-[(4-fluorophenyl)sulfonyl]-2-methyl-1,2,2′,3′,5′,6′-hexahydrospiro[indole-3,4′-pyran]-5-carboxamide]
  IC50: 0.378 µM

## NC(=O)c1ccc(S(=O)(=O)N2c3ccc(C(=O)Nc4cccc(S(=O)(=O)Nc5nccs5)c4)cc3C3(CCS(=O)(=O)CC3)C2C2CC2)cc1 (stereo not shown) [Example 96, 1-[(4-carbamoylphenyl)sulfonyl]-2-cyclopropyl-N-[3-(1,3-thiazol-2-ylsulfamoyl)phenyl]-1,2,2′,3′,5′,6′-hexahydrospiro[indole-3,4′-thiopyran]-5-carboxamide 1′,1′-dioxide]
  IC50: 0.484 µM

## N#Cc1cccc(S(=O)(=O)N2c3ccc(C(=O)Nc4ccon4)cc3C3(CCS(=O)(=O)CC3)C2C2CC2)c1 (single isomer, unassigned) [Example 80.2, 1-[(3-cyanophenyl)sulfonyl]-2-cyclopropyl-N-(1,2-oxazol-3-yl)-1,2,2′,3′,5′,6′-hexahydrospiro[indole-3,4′-thiopyran]-5-carboxamide 1′,1′-dioxide]
  IC50: > 20 µM

## COc1cccc(S(=O)(=O)N2c3ccc(C(=O)NCc4ccc(F)cc4Cl)cc3C3(CCS(=O)(=O)CC3)C2C2CC2)c1 (single isomer, unassigned) [Example 46.1, N-(2-chloro-4-fluorobenzyl)-2-cyclopropyl-1-[(3-methoxyphenyl)sulfonyl]-1,2,2′,3′,5′,6′-hexahydrospiro[indole-3,4′-thiopyran]-5-carboxamide 1′,1′-dioxide]
  IC50: 0.05 µM

## N#Cc1cccc(S(=O)(=O)N2c3ccc(C(=O)NCc4ccccc4Cl)cc3C3(CCS(=O)(=O)CC3)C2C2CC2)c1 (stereo not shown) [Example 76, N-(2-chlorobenzyl)-1-[(3-cyanophenyl)sulfonyl]-2-cyclopropyl-1,2,2′,3′,5′,6′-hexahydrospiro[indole-3,4′-thiopyran]-5-carboxamide 1′,1′-dioxide]
  IC50: 0.044 µM

## O=C(NC1CCOc2ccccc21)c1ccc2c(c1)C1(CCS(=O)(=O)CC1)C(C1CC1)N2S(=O)(=O)c1ccc(F)cc1 (single isomer, unassigned) [Example 33.2, 2-cyclopropyl-N-(3,4-dihydro-2H-chromen-4-yl)-1-[(4-fluorophenyl)sulfonyl]-1,2,2′,3′,5′,6′-hexahydrospiro[indole-3,4′-thiopyran]-5-carboxamide 1′,1′-dioxide]
  IC50: > 20 µM

## COc1cccc(S(=O)(=O)N2c3ccc(C(=O)Nc4cccc(S(=O)(=O)N=C(N(C)C)N(C)C)c4)cc3C3(CCS(=O)(=O)CC3)C2C2CC2)c1 (single isomer, unassigned) [Example 62.2, N-(3-{[bis(dimethylamino)methylidene]sulfamoyl}phenyl)-2-cyclopropyl-1-[(3-methoxyphenyl)sulfonyl]-1,2,2′,3′,5′,6′-hexahydrospiro[indole-3,4′-thiopyran]-5-carboxamide 1′,1′-dioxide]
  IC50: 0.0048 µM
